Measurements from PubChem BioAssay (NCI).
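48-hour exposure; five concentrations; linearly interpolated endpoints. Here, GI50 denotes the concentration required for 50% inhibition of growth. Definition used: TGI = concentration required for complete inhibition of growth.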

Key:
Test in all cases: inhibition of tumour cell growth, NCI panel, 48 h
NCI-H522 lung = system: NCI-H522 lung
UACC-257 melanoma = system: UACC-257 melanoma
SNB-19 CNS = system: SNB-19 CNS
HCT-116 colon = system: HCT-116 colon
CCRF-CEM leukemia = system: CCRF-CEM leukemia
HCT-15 colon = system: HCT-15 colon
OVCAR-8 ovarian = system: OVCAR-8 ovarian
RPMI-8226 leukemia = system: RPMI-8226 leukemia
HOP-62 NSCLC = system: HOP-62 NSCLC
ACHN renal = system: ACHN renal

Row | SMILES | GI50 (NCI-H522 lung) | TGI (NCI-H522 lung) | GI50 (UACC-257 melanoma) | TGI (UACC-257 melanoma) | GI50 (SNB-19 CNS) | TGI (SNB-19 CNS) | GI50 (HCT-116 colon) | TGI (HCT-116 colon) | GI50 (CCRF-CEM leukemia) | TGI (CCRF-CEM leukemia) | GI50 (HCT-15 colon) | TGI (HCT-15 colon) | GI50 (OVCAR-8 ovarian) | TGI (OVCAR-8 ovarian) | GI50 (RPMI-8226 leukemia) | TGI (RPMI-8226 leukemia) | GI50 (HOP-62 NSCLC) | TGI (HOP-62 NSCLC) | GI50 (ACHN renal) | TGI (ACHN renal)
1 | CCOc1ccccc1-n1c(CN2CCN(C(=O)COc3ccc(CNCCCCCCN4C5CCCC4CC(OC(=O)Nc4cc(C)ccc4OC)C5)cc3)CC2)nc2ccccc2c1=O (stereo not given) | 1790 nM | 3.45 µM | 1880 nM | 3.45 µM | 1760 nM | 3.35 µM | 616 nM | 1.32 µM | 160 nM | 1.21 µM | 2230 nM | 5.4 µM | 1830 nM | 3.75 µM | 1130 nM | 3.4 µM | 1700 nM | 3.25 µM | 2400 nM | 5.9 µM
2 | O=C(CN1CCN(c2cc3c(cc2F)c(=O)c(C(=O)N/N=C/c2ccccc2O)cn3C2CC2)CC1)N/N=C\c1ccccc1O | 405 nM | > 100 µM | 912 nM | > 100 µM | 1180 nM | > 100 µM | 443 nM | > 100 µM | 167 nM | > 100 µM | 330 nM | > 100 µM | 417 nM | > 100 µM | 557 nM | > 100 µM | 408 nM | > 100 µM | 351 nM | > 100 µM
3 | COc1cc(/C=C/c2cc(/C=C/c3ccc(O)c(OC)c3)n(C(=O)Nc3ccc(F)cc3)n2)ccc1O | 250 nM | 1.21 µM | 2170 nM | 9.12 µM | 1230 nM | 22.7 µM | 422 nM | 10.3 µM | 367 nM | 9.57 µM | 566 nM | 21.8 µM | 1500 nM | 4.79 µM | 454 nM | 3.37 µM | 1070 nM | 9.36 µM | 704 nM | 61.2 µM
4 | CC[C@@]12CCCN3CC[C@]4(c5cccc(OC)c5N(C(C)=O)[C@@H]4CC1)[C@H]32 |  | > 100 µM |  | > 100 µM |  | > 100 µM |  | > 100 µM |  | 57.1 µM |  | > 100 µM |  | > 100 µM |  | > 100 µM |  | > 100 µM |  | > 100 µM
5 | CCc1ccc2c(c1)C(=O)c1c-2n(CCCBr)c(=O)c2cc([N+](=O)[O-])ccc12 | 45900 nM | > 50 µM | > 50000 nM | > 50 µM | 30800 nM | > 50 µM | > 50000 nM | > 50 µM | > 50000 nM | > 50 µM | > 50000 nM | > 50 µM | > 50000 nM | > 50 µM | > 50000 nM | > 50 µM | 21300 nM | > 50 µM | > 50000 nM | > 50 µM
6 | Cc1nc2c(nc1C)C(=O)c1ccccc1C2=O |  | 10.7 µM |  | 4.3 µM |  | 19.4 µM |  | 13 µM |  | 46.9 µM |  | 8.3 µM |  | 42.9 µM |  | 45.9 µM |  | 10.3 µM |  | 35.4 µM
7 | CSc1ccccc1C#C/C=C\C#Cc1ccccc1N1CCCC1=O |  | > 50 µM | > 12500 nM | > 50 µM | > 11000 nM | > 50 µM |  | > 50 µM |  | > 50 µM |  | > 50 µM | > 13100 nM | > 50 µM | 3340 nM |  | > 15800 nM | > 50 µM | > 22900 nM | > 50 µM
8 | COc1cc(C(=O)/C=C/c2sc(Cl)nc2Cl)cc(OC)c1OC | 1680 nM | 3.96 µM | 2010 nM | 4.23 µM | 1720 nM | 3.18 µM | 1750 nM | 3.18 µM | 1910 nM | 4.95 µM | 1530 nM | 3 µM | 1930 nM | 3.96 µM | 1690 nM | 4.57 µM | 2290 nM | 5.6 µM | 1740 nM | 3.12 µM
9 | Cc1cc(=O)[nH]c2cc3oc4ccccc4c3cc12 |  | > 100 µM |  | > 100 µM |  | > 100 µM |  | > 100 µM |  | > 75.9 µM |  | > 100 µM |  | > 100 µM |  | > 100 µM |  | > 100 µM |  | > 100 µM
10 | CC1(C)OC(=O)C(=Cc2ccc(O)cc2)C(=O)O1 |  | > 100 µM |  | > 100 µM |  | > 100 µM |  | > 100 µM |  | > 100 µM |  | > 100 µM |  | > 100 µM |  | > 100 µM |  | > 100 µM |  | > 100 µM
